# Tests used:
# [1] = system: PfA-M1 and/or PfA-M17; assay: Multiplex primary screen, fluorogenic substrate Leu-Mec; assay type: biochemical, Plasmodium falciparum; settings: 100 μM compound, multiplex assay
# Procedure: A multiplex enzyme assay was developed to complete the primary screen of 400 compounds that were provided to us by MMV and SCYNEXIS. Combined PfMAP (15 nM PfA-M1; 80 nM PfA-M17 and 125 nM PfM18AAP) aminopeptidase activity in the presence of a single MMV compound (100 μM solubilized in 100% dimethyl sulfoxide, DMSO, final DMSO concentration in assay = 10%) was determined by simultaneous measurement of the release of the fluorogenic leaving group, -NHMec, from L-Leucine-7-amido-4-methylcoumarin-HCl (Leu-Mec) (Sigma) as well as the hydrolysis of p-nitroanilide from the chromogenic substrate, L-Glutamic acid p-nitroanilide (Glu-pNA) (Sigma). The fluorogenic substrate records the combined activity of PfA-M1 and PfA-M17 while the p-nitroanilide substrate is specific for PfM18AAP. Reactions were carried out in 96-well microtitre plates (200 μL total volume) in 50 mM Tris-HCl pH 8.0, 2 mM CoCl2 at 37°C. Following a 10 min incubation (multi-enzyme and single compound) at 37°C, reactions were initiated by addition of both fluorogenic and chromagenic substrates. Progress curves were monitored using a FLUOstar Omega multimode reader (BMG LabTech) for 1.5 h at 37°C. As activity references, individual enzyme and multiple enzyme 'no compound' controls and 'positive inhibitor' controls (with 10% DMSO) were included in each 96 well plate assay.
# [2] = target: T1, PfA-M1 (Plasmodium falciparum, UniProt O96935); assay: Secondary screening against individual enzyme; assay type: biochemical; settings: 100 μM compound, n = 3
# T1 construct: made in house; host or cells: Escherichia coli
# T1 sequence (O96935 195-1085 limits assumed): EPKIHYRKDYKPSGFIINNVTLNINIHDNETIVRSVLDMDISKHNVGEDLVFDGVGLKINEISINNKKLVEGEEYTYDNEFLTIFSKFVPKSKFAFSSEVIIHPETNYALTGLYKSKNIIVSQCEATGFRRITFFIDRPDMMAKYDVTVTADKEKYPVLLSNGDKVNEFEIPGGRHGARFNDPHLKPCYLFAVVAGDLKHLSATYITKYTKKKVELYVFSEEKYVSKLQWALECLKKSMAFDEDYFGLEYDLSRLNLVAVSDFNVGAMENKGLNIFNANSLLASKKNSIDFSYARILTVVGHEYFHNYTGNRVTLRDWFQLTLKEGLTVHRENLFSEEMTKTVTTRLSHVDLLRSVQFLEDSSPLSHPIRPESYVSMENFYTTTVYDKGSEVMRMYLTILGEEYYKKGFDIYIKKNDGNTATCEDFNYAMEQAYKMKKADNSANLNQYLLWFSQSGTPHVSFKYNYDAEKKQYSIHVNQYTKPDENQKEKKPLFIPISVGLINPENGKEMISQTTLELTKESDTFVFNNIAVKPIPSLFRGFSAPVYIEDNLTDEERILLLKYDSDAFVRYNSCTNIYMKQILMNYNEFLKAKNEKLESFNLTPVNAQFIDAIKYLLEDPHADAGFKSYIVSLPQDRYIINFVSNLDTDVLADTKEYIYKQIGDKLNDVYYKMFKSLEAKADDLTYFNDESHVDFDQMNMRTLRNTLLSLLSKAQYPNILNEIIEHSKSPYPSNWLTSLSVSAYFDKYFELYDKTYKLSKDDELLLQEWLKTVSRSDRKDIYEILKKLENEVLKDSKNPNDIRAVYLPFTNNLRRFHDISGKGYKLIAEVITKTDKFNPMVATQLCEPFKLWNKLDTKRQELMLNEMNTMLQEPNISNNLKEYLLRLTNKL
# Procedure: Aminopeptidase activity of each individual enzyme in the presence of a single MMV compound (100 μM) was determined using Leu-Mec for both PfA-M1 (15 nM) and PfA-M17 (80 nM) or Glu-pNA for PfM18AAP (125 nM). Reactions were carried out in 96-well microtitre plates (200 μl total volume) in 50 mM Tris-HCl pH 8.0, 2 mM CoCl2 at 37°C. Following a 10 min incubation (enzyme and compound) at 37°C, reactions were initiated by addition of enzyme specific substrate. Progress curves were monitored using a FLUOstar Omega multimode reader (BMG LabTech) for 1.5 h at 37°C. As activity references, individual enzyme 'no compound' controls and 'positive inhibitor' controls were included in each 96 well plate assay. We applied a cut-off of < 10% activity in the presence of 100 μM compound for selection to the next phase. Compounds that were selected to proceed were then used in further assays to obtain n = 3.
reduction of PfA-M1 activity [2],SMILES,Activity (PfA-M1 and/or PfA-M17) [1]
,Nc1ccc(-c2nc3cc(Oc4ccc(Oc5ccc6[nH]c(-c7ccc(N)cc7)nc6c5)cc4)ccc3[nH]2)cc1 [MMV011895],R
,O=C(Nc1ccc(-c2nc3cc4ccccc4cc3[nH]2)cc1)c1cccc(Br)c1 [MMV019241],R
,COc1ccc(C=C2SC(Nc3ccc(F)cc3)=NC2=O)c(OC)c1 [MMV084434],R
,COc1ccc(CCN2C(=O)c3[nH]nc(-c4cc(Cl)c(C)cc4O)c3C2c2ccccc2F)cc1 (stereo not shown) [MMV396717],R
,O=C(NNc1cc(N2CCCC2)nc(N2CCCC2)n1)c1ccccc1 [MMV396770],R
75%,Cc1cccc(-n2ncc3c(O)nc(-n4nc(C)cc4NC(=O)c4cc5ccccc5o4)nc32)c1 [MMV403679],R
,Oc1c(C(Nc2ccccn2)c2cccc(Oc3ccccc3)c2)ccc2cccnc12 (stereo not shown) [MMV665814],R
,CCOC(=O)c1c(NC(=O)c2ccccc2)sc2c(O)c(CN(CC)CC)ccc12 [MMV665831],R
,COc1ccc(/C=C2/SC(=Nc3ccccc3)NC2=O)cc1 [MMV665836],R
,Cc1ccc(-c2cc(C(=O)Nc3ccc(S(=O)(=O)N4CCCCC4)cc3)[nH]n2)c(O)c1 [MMV665906],R
,COc1cccc(C(=O)NC(c2ccc(C)cc2)c2cc(Cl)c3cccnc3c2O)c1 (stereo not shown) [MMV665969],R
,COc1ccc(C(=O)NC(c2ccccc2Cl)c2cc(Cl)c3cccnc3c2O)cc1 (stereo not shown) [MMV666022],R
87%,COc1ccc(C(=O)NC(c2ccc(Cl)cc2Cl)c2cc(Cl)c3cccnc3c2O)cc1 (stereo not shown) [MMV666054],R
,COc1ccc(C=C2SC(=N)N(c3ccccc3OC)C2=O)cc1 [MMV666691],R
